From patent US20040018210A1, “Cholesterol-lowering agent” (priority 2001, published 2004)

Test system: T9A4 human hepatic cells
Test: In vitro analysis of the hypocholesterolaemic effect: de novo synthesis of cholesterol measured by incorporation of C14-acetate
Format: cell-based
Details: main purified oxylanosterol molecules
Protocol: In the present context, the hypocholesterolaemic effect of the present product is evaluated in a qualitative manner on the model of T9A4 human hepatic cells cultured in vitro. Although it is known that such results cannot be transferred directly to man in vivo, they nevertheless provide useful indications. The hypocholesterolaemic effect is evaluated by measurement of the de novo synthesis of cholesterol on human hepatic cells in culture by measuring the incorporation of C^14-acetate. A means of evaluation of this de novo synthesis is described in a method presented below.
T9A4 human hepatic cells are grown on LCM medium (Biofluids, Rockville, Md.) at 37° C. under 3.5% CO2. The cells are seeded in 24-well culture boxes and incubated to confluence with 1 mM C14-acetate (1 mCi/mol, Amersham) for 20 hours in the absence (control) or in the presence of the extract rich in oxygenated derivatives of lanosterol obtained from fungi and/or purified fractions, dissolved in methanol.
A lipid extraction is carried out by incubation in a hexane:isopropanol (3:2) mixtures for 30 minutes at ambient temperature. The extract is then dried under nitrogen and then redissolved in hexane and subjected to thin layer high performance chromatography (Merck, Darmstadt, Germany) with a hexane:diethyl ether:acetic acid (75:25:1) mixture as the solvent. The cholesterol neosynthesis is determined by measuring the incorporation of C^14-acetate within the cholesterol with the aid of an imager (Camberra Packard, Zurich, Switzerland) and is expressed in % of the control.
ID50 represents the dose which inhibits the cholesterol synthesis by 50%. It can be seen that the various extracts have a considerable hypocholesterolaemic activity.

| SMILES | ID50 |
| --- | --- |
| C/C(C=O)=C\CC[C@@H](C)[C@H]1CC[C@@]2(C)C3=CC[C@H]4C(C)(C)C(=O)CC[C@]4(C)C3=CC[C@]12C [Ganoderal A] | 7 μq/ml |
| C/C(=C\CC[C@@H](C)[C@H]1CC[C@@]2(C)C3=CC[C@H]4C(C)(C)[C@@H](O)CC[C@]4(C)C3=CC[C@]12C)C(=O)O [Ganoderic acid Y] | 0.5 μq/ml |
| C/C(=C\CC[C@@H](C)[C@H]1CC[C@@]2(C)C3=CC[C@H]4C(C)(C)C(=O)CC[C@]4(C)C3=CC[C@]12C)CO [Ganoderol A] | 1 μq/ml |
| C/C(=C\CC[C@@H](C)[C@H]1CC[C@@]2(C)C3=CC[C@H]4C(C)(C)[C@@H](O)CC[C@]4(C)C3=CC[C@]12C)CO [Ganoderol B] | 10 μq/ml |
